# Source: publication PMC3078584 (Analytical biochemistry, 2010)
# Target: T1, His-Cbl(TKB) (Homo sapiens, UniProt P22681)
# T1 sequence (P22681 47-351 limits assumed): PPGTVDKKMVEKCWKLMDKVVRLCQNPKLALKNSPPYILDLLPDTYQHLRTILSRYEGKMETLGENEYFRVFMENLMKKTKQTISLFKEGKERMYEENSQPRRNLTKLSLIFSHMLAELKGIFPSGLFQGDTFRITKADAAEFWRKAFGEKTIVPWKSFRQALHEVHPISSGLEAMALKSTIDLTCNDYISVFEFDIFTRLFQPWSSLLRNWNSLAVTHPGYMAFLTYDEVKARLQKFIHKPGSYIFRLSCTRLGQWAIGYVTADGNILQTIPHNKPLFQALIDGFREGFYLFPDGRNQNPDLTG
# Experiment: Competitive FP assay, displacement of labeled ZAP70 peptide 1 from His-Cbl
# Type: binding
# Conditions: 100 nM labeled peptide 1
smiles,measurement,setting,value
"CC(=O)N[C@H](C(=O)N[C@@H](CC(C)C)C(=O)N[C@@H](CC(N)=O)C(=O)N[C@@H](CO)C(=O)N[C@@H](CC(=O)O)C(=O)NCC(=O)N[C@@H](Cc1ccc(OP(=O)(O)O)cc1)C(=O)N[C@H](C(=O)N1CCC[C@H]1C(=O)N[C@@H](CCC(=O)O)C(=O)N1CCC[C@H]1C(=O)N[C@@H](C)C(N)=O)[C@@H](C)O)[C@@H](C)O [ZAP70 peptide 2, Ac-TLNSDGpYTPEPA-CONH2]",ΔmP (competition),0.3 μM His-Cbl(TKB),do not give measureable IC50 or ΔmP values
same,ΔmP (competition),1.25 μM His-Cbl(TKB),do not give measureable IC50 or ΔmP values
same,ΔmP (competition),5 μM His-Cbl(TKB),52.5 mP
same,ΔmP (competition),9 μM His-Cbl(TKB),85.2 mP
same,ΔmP (competition),[…] His-Cbl(TKB),25.7 mP
